Data reported in the CheMixHub ionic liquid set.
± gives the uncertainty stated by the source.

Assay: xn = mol fraction of the nth substance listed

## CCCC[n+]1ccn(C)c1.O=S(=O)([N-]S(=O)(=O)C(F)(F)F)C(F)(F)F + CCCCO
298 K, 100 kPa, x1 = 0.05
  viscosity: 3.52 ± 0.026 mPa·s
298 K, 100 kPa, x1 = 0.1
  viscosity: 4.728 ± 0.042 mPa·s
298 K, 100 kPa, x1 = 0.1998
  viscosity: 6.745 ± 0.067 mPa·s
298 K, 100 kPa, x1 = 0.2996
  viscosity: 8.98 ± 0.11 mPa·s
298 K, 100 kPa, x1 = 0.399
  viscosity: 11.9 ± 0.16 mPa·s
298 K, 100 kPa, x1 = 0.4991
  viscosity: 15.1 ± 0.24 mPa·s
298 K, 100 kPa, x1 = 0.5995
  viscosity: 19.41 ± 0.34 mPa·s
298 K, 100 kPa, x1 = 0.6984
  viscosity: 24.48 ± 0.48 mPa·s
298 K, 100 kPa, x1 = 0.7971
  viscosity: 31.76 ± 0.69 mPa·s
298 K, 100 kPa, x1 = 0.9005
  viscosity: 39.89 ± 0.95 mPa·s
298 K, 100 kPa, x1 = 1
  viscosity: 49.7 ± 1.3 mPa·s
298 K, 101 kPa, x2 = 0
  viscosity: 50.4 ± 1.9 mPa·s
298 K, 101 kPa, x2 = 0.2936
  electrical conductivity: 0.561 ± 0.064 S/m
298 K, 101 kPa, x2 = 0.317
  electrical conductivity: 0.613 ± 0.064 S/m
298 K, 101 kPa, x2 = 0.5053
  electrical conductivity: 0.668 ± 0.064 S/m
298 K, 101 kPa, x2 = 0.6833
  electrical conductivity: 0.653 ± 0.064 S/m
298 K, 101 kPa, x2 = 0.8349
  electrical conductivity: 0.418 ± 0.064 S/m
298 K, 101 kPa, x2 = 0.8623
  electrical conductivity: 0.368 ± 0.064 S/m

## Cn1cc[nH+]c1.[Cl-] + OCC(O)CO
298.15 K, 100 kPa, x1 = 0.333
  viscosity: 126.1 ± 2.8 mPa·s
313.15 K, 100 kPa, x1 = 0.333
  viscosity: 70.3 ± 0.8 mPa·s
333.15 K, 100 kPa, x1 = 0.333
  viscosity: 35 ± 0.4 mPa·s

## CC#N + CCCC[n+]1ccn(C)c1.F[B-](F)(F)F
298.15 K, 100 kPa, x2 = 0
  electrical conductivity: 0.0002 ± 0.0001 S/m
  viscosity: 0.37 ± 0.0047 mPa·s
333.15 K, 101 kPa, x1 = 1
  viscosity: 0.257 ± 0.004 mPa·s

## CCCCCCO + CCCC[n+]1ccn(C)c1.O=S(=O)([N-]S(=O)(=O)C(F)(F)F)C(F)(F)F
298 K, 100 kPa, x2 = 0
  viscosity: 4.502 ± 0.07 mPa·s
298 K, 100 kPa, x2 = 0.6
  electrical conductivity: 0.5605 ± 0.0056 S/m
298 K, 100 kPa, x2 = 0.7
  electrical conductivity: 0.491 ± 0.0049 S/m
  viscosity: 26.59 ± 0.6 mPa·s
298 K, 100 kPa, x2 = 0.8
  electrical conductivity: 0.4635 ± 0.0046 S/m
298 K, 100 kPa, x2 = 0.8006
  viscosity: 32.43 ± 0.77 mPa·s
298 K, 100 kPa, x2 = 0.899
  viscosity: 40.3 ± 1 mPa·s
298 K, 100 kPa, x2 = 0.9
  electrical conductivity: 0.427 ± 0.043 S/m

## CC#N + CC[n+]1ccn(C)c1.F[B-](F)(F)F
303.15 K, 100 kPa, x1 = 1
  viscosity: 0.354 ± 0.036 mPa·s
303.15 K, 101 kPa, x2 = 0
  viscosity: 0.326 ± 0.033 mPa·s
313.15 K, 101 kPa, x2 = 0
  viscosity: 0.297 ± 0.03 mPa·s
323.15 K, 101 kPa, x2 = 0
  viscosity: 0.272 ± 0.027 mPa·s
333.15 K, 101 kPa, x2 = 0
  viscosity: 0.249 ± 0.025 mPa·s

## CC[n+]1ccn(C)c1.O=S(=O)([O-])O + OCC(O)CO
298.15 K, 100 kPa, x1 = 0.33
  viscosity: 320 ± 26 mPa·s
303.15 K, 100 kPa, x1 = 0.33
  viscosity: 232 ± 16 mPa·s
308.15 K, 100 kPa, x1 = 0.33
  viscosity: 168 ± 9 mPa·s
313.15 K, 100 kPa, x1 = 0.33
  viscosity: 127 ± 5 mPa·s
318.15 K, 100 kPa, x1 = 0.33
  viscosity: 99 ± 3 mPa·s
323.15 K, 100 kPa, x1 = 0.33
  viscosity: 78 ± 2 mPa·s

## CCCC[n+]1ccn(C)c1.O=S(=O)([N-]S(=O)(=O)C(F)(F)F)C(F)(F)F + OCCOCCOCCOCCO
298.15 K, 101 kPa, x2 = 0
  viscosity: 45.3 ± 1.1 mPa·s

## CCCC[n+]1ccn(C)c1.F[P-](F)(F)(F)(F)F + ClC(Cl)Cl
298.15 K, 101 kPa, x2 = 0
  electrical conductivity: 0.157 ± 0.019 S/m
  viscosity: 260 mPa·s
298.15 K, 101 kPa, x2 = 0.0857
  electrical conductivity: 0.199 ± 0.024 S/m
  viscosity: 200 mPa·s
298.15 K, 101 kPa, x2 = 0.1741
  electrical conductivity: 0.253 ± 0.03 S/m
  viscosity: 144 ± 63 mPa·s
298.15 K, 101 kPa, x2 = 0.2614
  electrical conductivity: 0.319 ± 0.038 S/m
  viscosity: 103 ± 31 mPa·s
298.15 K, 101 kPa, x2 = 0.3625
  electrical conductivity: 0.411 ± 0.049 S/m
  viscosity: 68.4 ± 9.1 mPa·s
298.15 K, 101 kPa, x2 = 0.4608
  electrical conductivity: 0.519 ± 0.062 S/m
  viscosity: 43 ± 4.3 mPa·s
298.15 K, 101 kPa, x2 = 0.5633
  electrical conductivity: 0.644 ± 0.077 S/m
  viscosity: 25 ± 2.5 mPa·s
298.15 K, 101 kPa, x2 = 0.6683
  electrical conductivity: 0.726 ± 0.087 S/m
  viscosity: 13.1 ± 1.4 mPa·s
298.15 K, 101 kPa, x2 = 0.7326
  electrical conductivity: 0.729 ± 0.087 S/m
  viscosity: 10 ± 1.1 mPa·s

## CN(C)C=O + CCCCCCCCn1cc[n+](C)c1.O=S(=O)([N-]S(=O)(=O)C(F)(F)F)C(F)(F)F
293.15 K, 101 kPa, x2 = 0
  viscosity: 0.881 ± 0.035 mPa·s
303.15 K, 101 kPa, x2 = 0
  viscosity: 0.771 ± 0.036 mPa·s
313.15 K, 101 kPa, x2 = 0
  viscosity: 0.668 ± 0.037 mPa·s
323.15 K, 101 kPa, x2 = 0
  viscosity: 0.605 ± 0.038 mPa·s
333.15 K, 101 kPa, x2 = 0
  viscosity: 0.553 ± 0.037 mPa·s
353.15 K, 101 kPa, x2 = 0
  viscosity: 0.479 ± 0.029 mPa·s
363.15 K, 101 kPa, x2 = 0
  viscosity: 0.447 ± 0.023 mPa·s

## CCCCCCO + CCCC[n+]1ccn(C)c1.N#C[S-]
308.15 K, 101 kPa, x1 = 1
  viscosity: 3.33 ± 0.01 mPa·s
338.15 K, 101 kPa, x1 = 1
  viscosity: 1.57 ± 0.01 mPa·s
